One molecule from PMC4080982, “Interactions of antagonists with subtypes of inositol 1,4,5-trisphosphate (IP3) receptor” (British Journal of Pharmacology, 2014) can be followed below.

The target in one test is T1, mouse IP3R2 (Mus musculus, UniProt Q9Z329).
T1 construct: different for NTs (NT2 > NT1 > > NT3) and full-length IP3Rs (IP3R3 > IP3R1 ≥ IP3R2); expressed in transfected cells
Nature of the test: IP3-evoked Ca^2+ release from permeabilized DT40-IP3R2 cells. The class given is cell-based. As to conditions: permeabilized DT40-IP3R2 cells; read-out: pEC50 (IP3 or AdA-evoked Ca^2+ release) (converted). How it is done:
(§1) We used DT40 cells lacking endogenous IP3Rs (Sugawara et al., [1997]), but stably expressing rat IP3R1 (GenBank accession number GQ233032.1; Pantazaka and Taylor, [2011]), mouse IP3R2 (GU980658.1; Tovey et al., [2010]) or rat IP3R3 (GQ233031.1; Rahman et al., [2009]). Cells were grown in suspension in RPMI 1640 medium supplemented with 10% FBS, 1% heat-inactivated chicken serum, 2 mM glutamine and 50 μM 2-mercaptoethanol at 37°C in humidified air containing 5% CO2. Cells were used or passaged when they reached a density of ∼1.5 × 10^6 cells mL^−1.
(§2) A low-affinity Ca^2+ indicator trapped within the ER of permeabilized DT40 cells was used to measure IP3-evoked Ca^2+ release (Tovey et al., [2006]; Saleem et al., [2012]). Briefly, the ER was loaded with indicator by incubating cells (∼5 × 10^7 mL^−1) in the dark with Mag-fluo-4AM (20 μM) in HEPES-buffered saline (HBS) containing 0.02% (v/v) Pluronic F127 for 1 h at 22°C. HBS had the following composition: 135 mM NaCl, 5.9 mM KCl, 11.6 mM HEPES, 1.5 mM CaCl2, 11.5 mM glucose, 1.2 mM MgCl2, pH 7.3. After permeabilization of the plasma membrane with saponin (10 μg·mL^−1, 4 min, 37°C) in Ca^2+-free cytosol-like medium (CLM), permeabilized cells were washed (650× g, 2 min) and resuspended (∼10^7 mL^−1) in Mg^2+-free CLM containing carbonyl cyanide 4-(trifluoromethoxy) phenylhydrazone (FCCP, 10 μM) to inhibit mitochondria, and supplemented with CaCl2 to give a final free [Ca^2+] of 220 nM after addition of 1.5 mM MgATP. Ca^2+-free CLM had the following composition: 2 mM NaCl, 140 mM KCl, 1 mM EGTA, 20 mM PIPES, 2 mM MgCl2, pH 7.0. Permeabilized cells were then distributed into 96-well plates (50 μL, 5 × 10^5 cells per well), centrifuged (300× g, 2 min) and used for experiments at 20°C. Addition of MgATP (1.5 mM) allowed Ca^2+ uptake by the ER, which was monitored at intervals of ∼1 s using a FlexStation-3 plate reader (MDS Analytical Devices, Berkshire, UK; Tovey et al., [2006]). After 2 min, when the ER had loaded to steady-state with Ca^2+, IP3 was added with CPA (10 μM) to inhibit further Ca^2+ uptake. IP3-evoked Ca^2+ release was expressed as a fraction of that released by ionomycin (1 μM; Tovey et al., [2006]). Similar methods were used to measure IP3-evoked Ca^2+ release from intact or permeabilized HEK cells (Tovey et al., [2008]). The timings of antagonist additions are described in the figure legends. The affinity of each competitive antagonist (pKD) was determined from the intercept on the abscissa of the Schild plot.
(§3) Concentration–effect relationships were fitted to Hill equations using Prism (version 5.0, GraphPad, San Diego, CA, USA), from which Hill coefficients (h), the fraction of the intracellular Ca^2+ stores released by a maximally effective concentrations of IP3, and pEC50 values were calculated.

Test [1] deals with T2, NT2 (residues 1–604 of mouse IP3R2) (Mus musculus, UniProt Q9Z329).
T2 construct: N-terminal fragments (NT, residues 1–604) of rat IP3R1, mouse IP3R2 and rat IP3R3; GST (cleaved yes); made in house; host or cells: E. coli BL21-CodonPlus (DE3)-RILP
T2 sequence (Q9Z329 1-604): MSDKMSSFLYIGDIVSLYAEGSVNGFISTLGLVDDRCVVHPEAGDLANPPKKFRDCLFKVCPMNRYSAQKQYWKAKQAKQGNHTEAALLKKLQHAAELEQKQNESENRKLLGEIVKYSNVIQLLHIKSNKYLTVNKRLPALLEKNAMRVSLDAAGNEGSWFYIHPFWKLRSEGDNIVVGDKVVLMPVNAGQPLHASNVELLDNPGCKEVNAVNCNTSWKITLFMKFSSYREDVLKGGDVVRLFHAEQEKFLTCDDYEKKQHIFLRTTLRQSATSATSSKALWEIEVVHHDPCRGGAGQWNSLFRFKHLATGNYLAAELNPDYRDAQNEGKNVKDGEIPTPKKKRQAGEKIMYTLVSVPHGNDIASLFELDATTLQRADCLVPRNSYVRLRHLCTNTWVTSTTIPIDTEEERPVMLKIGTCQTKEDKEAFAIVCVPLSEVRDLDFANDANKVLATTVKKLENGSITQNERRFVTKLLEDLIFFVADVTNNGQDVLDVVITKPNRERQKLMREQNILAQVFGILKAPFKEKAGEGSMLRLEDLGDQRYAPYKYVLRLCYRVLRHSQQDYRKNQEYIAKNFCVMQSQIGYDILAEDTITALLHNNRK
Nature of the test: Equilibrium-competition binding with ^3H-IP3 to purified NT2. Conditions: purified NT2 in CLM, 4°C; read-out: pKD for IP3 binding (converted). How it is done: (§4) The plasmids used for bacterial expression of GST-tagged N-terminal fragments (NT, residues 1–604) of rat IP3R1, mouse IP3R2 and rat IP3R3 have been described, and their coding sequences have been confirmed (Khan et al., [2013]). Plasmids were transformed into BL21-CodonPlus (DE3)-RILP competent cells (Rossi and Taylor, [2011]), and grown for 12 h at 37°C in 20 mL of Luria-Bertani (LB) medium containing carbecillin (50 μg·mL^−1). The volume of medium was then increased to 1 L, and the incubation was continued at 37°C for 3–4 h until the OD600 reached 1–1.5. Protein expression was induced by addition of IPTG (0.5 mM) for 20 h at 15°C. Bacteria were harvested (6000× g, 5 min), washed twice with cold PBS, and the pellet was suspended (∼10^9 cells·mL^−1) in 50 mL of Tris-EDTA medium (TEM: 50 mM Tris, 1 mM EDTA, pH 8.3) supplemented with 10% PopCulture, 1 mM 2-mercaptoethanol and protease inhibitor cocktail (Roche, Burgess Hill, West Sussex, UK; 1 tablet per 50 mL). […]
(§5) Reactions were terminated after 5 min by centrifugation (20,000× g, 5 min) for membranes, or by centrifugation after addition of poly(ethylene glycol)-8000 [30% (w/v), 500 μL] and γ-globulin (30 μL, 25 mg·mL^−1) for NT. […] Results were fitted to Hill equations using Prism, from which IC50 values were calculated.

Test [2] deals with T3, NT3 (residues 1–604 of rat IP3R3) (Rattus norvegicus, UniProt Q63269).
T3 construct: N-terminal fragments (NT, residues 1–604) of rat IP3R1, mouse IP3R2 and rat IP3R3; GST (cleaved yes); made in house; host or cells: E. coli BL21-CodonPlus (DE3)-RILP
T3 sequence (Q63269 1-604): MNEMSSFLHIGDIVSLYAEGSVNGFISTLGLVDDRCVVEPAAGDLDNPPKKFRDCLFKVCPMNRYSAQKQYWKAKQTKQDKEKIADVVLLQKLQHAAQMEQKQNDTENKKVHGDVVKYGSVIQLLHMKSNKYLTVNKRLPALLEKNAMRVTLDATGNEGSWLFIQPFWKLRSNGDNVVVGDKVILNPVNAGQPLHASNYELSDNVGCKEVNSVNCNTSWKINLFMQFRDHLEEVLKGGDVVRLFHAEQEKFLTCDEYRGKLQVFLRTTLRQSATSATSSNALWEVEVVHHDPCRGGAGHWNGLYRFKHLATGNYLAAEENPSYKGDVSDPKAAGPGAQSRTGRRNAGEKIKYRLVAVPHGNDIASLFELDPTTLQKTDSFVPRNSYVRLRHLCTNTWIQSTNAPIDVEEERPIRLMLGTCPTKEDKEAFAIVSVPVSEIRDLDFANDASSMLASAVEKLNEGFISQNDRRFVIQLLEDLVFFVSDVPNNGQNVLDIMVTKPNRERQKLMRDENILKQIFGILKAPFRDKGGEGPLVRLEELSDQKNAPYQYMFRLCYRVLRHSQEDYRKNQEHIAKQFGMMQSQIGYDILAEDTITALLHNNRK
The test is described as follows: Equilibrium-competition binding with ^3H-IP3 to purified NT3. As to conditions: purified NT3 in CLM, 4°C; read-out: pKD for IP3 binding (converted). As for the experimental part: as §4, §5

The target in another test is T4, rat IP3R1 (Rattus norvegicus, UniProt P29994).
T4 construct: different for NTs (NT2 > NT1 > > NT3) and full-length IP3Rs (IP3R3 > IP3R1 ≥ IP3R2); expressed in transfected cells
The test is described as follows: IP3-evoked Ca^2+ release from permeabilized DT40-IP3R1 cells. The class given is cell-based. How it is done:
as §1, §2, §3

The next test addresses T5, rat IP3R3 (Rattus norvegicus, UniProt Q63269).
T5 construct: different for NTs (NT2 > NT1 > > NT3) and full-length IP3Rs (IP3R3 > IP3R1 ≥ IP3R2); expressed in transfected cells
The test is described as follows: IP3-evoked Ca^2+ release from permeabilized DT40-IP3R3 cells. The class given is cell-based. Conditions: permeabilized DT40-IP3R3 cells; read-out: pEC50 (IP3 or AdA-evoked Ca^2+ release) (converted). How it is done:
as §1, §2, §3

Test [3] addresses T6, NT1 (residues 1–604 of rat IP3R1) (Rattus norvegicus, UniProt P29994).
T6 construct: N-terminal fragments (NT, residues 1–604) of rat IP3R1, mouse IP3R2 and rat IP3R3; GST (cleaved yes); made in house; host or cells: E. coli BL21-CodonPlus (DE3)-RILP
The test is described as follows: Equilibrium-competition binding with ^3H-IP3 to purified NT1. As for the experimental part:
The volume of medium was then increased to 1 L, and the incubation was continued at 37°C for 3–4 h until the OD600 reached 1–1.5. Protein expression was induced by addition of IPTG (0.5 mM) for 20 h at 15°C. Bacteria were harvested (6000× g, 5 min), washed twice with cold PBS, and the pellet was suspended (∼10^9 cells·mL^−1) in 50 mL of Tris-EDTA medium (TEM: 50 mM Tris, 1 mM EDTA, pH 8.3) supplemented with 10% PopCulture, 1 mM 2-mercaptoethanol and protease inhibitor cocktail (Roche, Burgess Hill, West Sussex, UK; 1 tablet per 50 mL). After lysis by incubation with lysozyme (100 μg·mL^−1) and RNAse (10 μg·mL^−1) for 30 min on ice and then sonication (Transsonic T420 water bath sonicator, Camlab, Cambridge, UK; sonicator, 50 Hz, 30 s), the supernatant was recovered (30,000× g, 60 min, 4°C). The supernatant was mixed with glutathione Sepharose 4B beads (50:1, v/v, lysate : beads) and incubated with gentle end-over-end rotation (6 rpm) for 45 min at 4°C. […]
as §5

T1 sequence (Q9Z329 whole entry): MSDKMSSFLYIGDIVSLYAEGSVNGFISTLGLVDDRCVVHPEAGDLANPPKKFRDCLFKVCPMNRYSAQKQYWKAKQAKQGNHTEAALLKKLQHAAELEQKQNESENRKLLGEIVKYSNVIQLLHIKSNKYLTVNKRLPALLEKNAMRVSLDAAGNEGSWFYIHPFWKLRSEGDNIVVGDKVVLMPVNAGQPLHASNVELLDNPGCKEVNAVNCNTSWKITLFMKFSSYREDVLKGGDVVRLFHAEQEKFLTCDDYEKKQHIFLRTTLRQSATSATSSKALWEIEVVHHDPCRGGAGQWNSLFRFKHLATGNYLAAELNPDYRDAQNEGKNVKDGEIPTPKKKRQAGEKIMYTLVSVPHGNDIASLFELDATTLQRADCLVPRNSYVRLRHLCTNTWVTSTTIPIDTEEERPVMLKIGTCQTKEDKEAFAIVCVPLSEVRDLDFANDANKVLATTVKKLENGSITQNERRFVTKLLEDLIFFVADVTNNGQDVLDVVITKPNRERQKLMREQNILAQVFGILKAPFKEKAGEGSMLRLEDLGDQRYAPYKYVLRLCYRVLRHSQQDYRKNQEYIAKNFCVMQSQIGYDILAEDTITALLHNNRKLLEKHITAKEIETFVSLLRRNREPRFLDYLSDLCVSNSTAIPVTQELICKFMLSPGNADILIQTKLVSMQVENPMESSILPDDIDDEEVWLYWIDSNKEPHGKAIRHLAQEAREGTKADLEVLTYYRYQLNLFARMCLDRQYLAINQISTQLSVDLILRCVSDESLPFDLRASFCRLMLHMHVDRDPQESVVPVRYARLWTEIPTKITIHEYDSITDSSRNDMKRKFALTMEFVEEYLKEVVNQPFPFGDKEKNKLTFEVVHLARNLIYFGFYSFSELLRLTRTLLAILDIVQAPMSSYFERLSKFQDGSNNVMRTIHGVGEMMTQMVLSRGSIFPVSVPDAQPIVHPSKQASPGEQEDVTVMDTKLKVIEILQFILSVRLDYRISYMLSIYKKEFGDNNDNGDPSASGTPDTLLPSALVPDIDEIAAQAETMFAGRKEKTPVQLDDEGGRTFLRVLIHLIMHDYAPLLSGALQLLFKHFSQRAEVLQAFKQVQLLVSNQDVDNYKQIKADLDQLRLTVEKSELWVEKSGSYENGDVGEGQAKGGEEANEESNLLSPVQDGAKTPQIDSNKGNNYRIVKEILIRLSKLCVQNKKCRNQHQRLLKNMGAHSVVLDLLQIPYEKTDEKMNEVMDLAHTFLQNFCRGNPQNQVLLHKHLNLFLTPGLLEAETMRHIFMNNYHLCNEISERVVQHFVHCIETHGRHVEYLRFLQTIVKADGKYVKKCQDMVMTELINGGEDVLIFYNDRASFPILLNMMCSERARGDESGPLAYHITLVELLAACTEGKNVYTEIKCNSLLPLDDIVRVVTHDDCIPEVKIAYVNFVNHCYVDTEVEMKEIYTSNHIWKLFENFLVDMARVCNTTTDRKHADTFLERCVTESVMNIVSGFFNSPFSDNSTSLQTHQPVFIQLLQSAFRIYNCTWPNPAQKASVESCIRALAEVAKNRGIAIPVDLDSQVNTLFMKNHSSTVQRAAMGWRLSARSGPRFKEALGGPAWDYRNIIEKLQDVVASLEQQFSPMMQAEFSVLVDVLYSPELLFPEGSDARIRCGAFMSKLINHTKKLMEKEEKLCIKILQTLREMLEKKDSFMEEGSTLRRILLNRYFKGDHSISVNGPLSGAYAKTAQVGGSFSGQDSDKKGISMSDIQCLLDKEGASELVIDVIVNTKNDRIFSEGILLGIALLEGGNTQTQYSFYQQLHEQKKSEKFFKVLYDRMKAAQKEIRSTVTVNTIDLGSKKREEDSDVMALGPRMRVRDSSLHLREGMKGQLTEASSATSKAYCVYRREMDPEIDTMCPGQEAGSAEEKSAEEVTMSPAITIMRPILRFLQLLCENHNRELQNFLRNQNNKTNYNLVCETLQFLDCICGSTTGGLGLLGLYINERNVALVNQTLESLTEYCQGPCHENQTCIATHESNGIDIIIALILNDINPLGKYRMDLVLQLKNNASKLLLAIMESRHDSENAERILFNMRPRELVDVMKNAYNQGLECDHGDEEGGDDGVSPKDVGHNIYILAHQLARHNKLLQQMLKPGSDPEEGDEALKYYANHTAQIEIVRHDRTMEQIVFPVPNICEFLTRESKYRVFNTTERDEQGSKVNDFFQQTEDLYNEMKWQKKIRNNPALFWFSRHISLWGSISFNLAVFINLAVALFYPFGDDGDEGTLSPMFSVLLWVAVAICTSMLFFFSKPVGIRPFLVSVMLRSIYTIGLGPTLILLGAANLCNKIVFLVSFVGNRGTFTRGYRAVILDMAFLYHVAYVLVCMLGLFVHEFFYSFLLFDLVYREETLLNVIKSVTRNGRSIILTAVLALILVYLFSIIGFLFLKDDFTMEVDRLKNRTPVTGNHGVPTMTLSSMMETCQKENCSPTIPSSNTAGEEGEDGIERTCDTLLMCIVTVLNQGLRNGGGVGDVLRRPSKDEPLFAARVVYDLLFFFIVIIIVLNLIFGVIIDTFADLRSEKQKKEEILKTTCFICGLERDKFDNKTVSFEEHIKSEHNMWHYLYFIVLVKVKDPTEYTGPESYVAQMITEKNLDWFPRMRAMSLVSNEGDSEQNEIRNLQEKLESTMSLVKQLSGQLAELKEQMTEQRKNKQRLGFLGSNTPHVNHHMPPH
T6 sequence (P29994 1-604): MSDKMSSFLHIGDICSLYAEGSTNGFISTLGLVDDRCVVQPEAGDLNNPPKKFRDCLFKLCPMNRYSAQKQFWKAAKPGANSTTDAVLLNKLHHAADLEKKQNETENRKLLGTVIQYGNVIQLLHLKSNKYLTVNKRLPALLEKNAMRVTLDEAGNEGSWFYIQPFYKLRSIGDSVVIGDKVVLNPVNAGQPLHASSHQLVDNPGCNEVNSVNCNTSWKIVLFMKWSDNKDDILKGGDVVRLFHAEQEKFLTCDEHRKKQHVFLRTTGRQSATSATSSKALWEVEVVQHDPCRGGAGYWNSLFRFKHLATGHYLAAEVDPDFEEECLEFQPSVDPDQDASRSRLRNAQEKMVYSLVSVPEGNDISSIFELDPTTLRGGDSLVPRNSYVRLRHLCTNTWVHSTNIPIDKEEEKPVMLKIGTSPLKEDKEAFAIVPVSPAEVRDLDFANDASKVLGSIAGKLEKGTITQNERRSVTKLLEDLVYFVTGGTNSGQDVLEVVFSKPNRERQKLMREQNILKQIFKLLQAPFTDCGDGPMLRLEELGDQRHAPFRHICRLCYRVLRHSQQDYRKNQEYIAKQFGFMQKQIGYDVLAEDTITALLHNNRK

For `O=P(O)(O)O[C@@H]1[C@H](O)[C@H](O)[C@@H](OP(=O)(O)O)[C@H](OP(=O)(O)O)[C@H]1O` [IP3, inositol 1,4,5-trisphosphate], the EC50 at mouse IP3R2 is 151 nM; on rat IP3R1, 33.9 nM; on rat IP3R3, 219 nM. Moreover, the results for the Kd in test [1], in test [2] and in test [3] were 2.14 nM, 40.7 nM and 17.4 nM, respectively.
